Laboratory results as given in patent publication US20040229825A1, “Pharmaceutical composition for treatment of infection with drug resistant bacterium and disinfectant” (priority 2003, published 2004).
Values after ≈ are worked out from the molar mass of the structure shown. Read-outs that look alike come from different tables or passages of the source.

How the values were obtained:
[1] = system: MRSA; assay: Enhancement of the antibacterial activity of various antibiotics by flavone on MRSA; assay type: cell-based, Staphylococcus aureus; settings: for MIC: Staphylococcus aureus, antibiotics alone; for MIC +flavone: addition of 50 μg/mL of flavone
Procedure: (§1) MRSA were employed as bacteria to be tested. The antibacterial activity was determined according to the agar plate dilution method defined by Japan Society of Chemotherapy (Chemotherapy 29(1), 76-79(1981)). The employed plate medium for the measurement of sensitivity was semisynthetic medium based on Mueller-Hinton Agar, and the bacteria solution for seeding was prepared by incubating the test bacterium in Mueller-Hinton Broth at 37° C. for 20 hours, followed by diluting in 0.85% saline to give 10^6 CFU/mL. The test samples were produced in two times-serial dilution method. To this plate medium for the measurement of sensitivity, was seeded a bacteria solution with a Micro Planter® (Sakuma Seisakusho). After incubating at 37° C. for 20 hours, a minimum inhibitory concentration (MIC) was determined. […] In addition, MIC50 indicates a concentration yielding the proliferation inhibitory effect in 50% of total number of MRSA strains, whilst MIC90 indicates a concentration yielding the proliferation inhibitory effect in 90% of total number of MRSA strains.
Antibacterial Activities of Various β-Lactam Antibiotics on MRSA with 50 μg/mL of Flavone

[2] = system: MRSA; assay: Antibacterial activity of flavonoids on MRSA (agar plate dilution method, MIC); assay type: cell-based, Staphylococcus aureus; settings: flavonoid alone; for MIC: 20 h; for MIC / MIC50 / MIC90 / MIC range: MRSA 20 strains
Procedure: as §1

[3] = system: MRSA; assay: Enhancement of the antibacterial activity of methicillin by various flavonoids on MRSA; assay type: cell-based, Staphylococcus aureus; settings: methicillin alone
Procedure: as §1
Antibacterial Activities of Methicillin on MRSA with 50 μg/mL of Various Flavonoids

[4] = system: penicillinase producing Staphylococcus aureus; assay: Effects of flavone in combination with benzylpenicillin or methicillin on penicillinase producing Staphylococcus aureus; assay type: cell-based; settings: antibiotic alone
Procedure: as §1
The effects of flavone in combination with benzylpenicillin or methicillin on penicillinase producing Staphylococcus aureus are shown in Table 4.
Effects of Flavone in Combination with Benzylpenicillin or Methicillin on Penicillinase Producing Staphylococcus aureus.

[5] = system: MRSA infected mouse; assay: Antibacterial activity on MRSA infected mouse (survival rate after 5 days); assay type: in vivo
Procedure: MRSA was incubated with Brain-Heart Infusion medium at 37° C. for 18 hours, and then the bacteria were collected and washed, followed by resuspension in saline. The suspension was admixed in an aqueous 5% gastric mucin solution and the concentration was adjusted to a predetermined value. Then, 0.2 mL of the mixture was intraperitoneally administered to an ICR strain SPF mouse. At one hour after the infection, various concentrations of β-lactam agents and rutin (0.2 mL) was subcutaneously administered, and survival rate was analyzed after 5 days and thus the effectiveness was evaluated. In addition, the effectiveness by oral administration (0.2 mL) was evaluated and various concentrations of β-lactam agents and rutin (0.2 mL) were administered using a gastric probe 1 hour or 5 hours prior to the infection.

[6] = Dissolution of rutin (auxiliary effects of L-arginine hydrochloride and L-cysteine); solubility in water; assay type: physicochemical
Procedure: To the solution B, is added 3.5 mL of the solution A. After adjusting the pH of the mixture to 8.5 with HCl, the mixture is filtered to give an injectable.

[7] = Staphylococcus aureus, read-out: MIC50
[8] = Staphylococcus aureus, read-out: MIC90
[9] = antibiotic alone, 0.5 mg/mouse, after 5 days
[10] = antibiotic alone, 1 mg/mouse, after 5 days
[11] = antibiotic alone, 5 mg/mouse, after 5 days
[12] = antibiotic alone, 10 mg/mouse, after 5 days
[13] = antibiotic alone, 15 mg/mouse, after 5 days
[14] = oral, antibiotic 10 mg/mouse with rutin 5 mg/mouse
[15] = oral, antibiotic 10 mg/mouse with rutin 10 mg/mouse
[16] = oral, antibiotic 15 mg/mouse with rutin 5 mg/mouse
[17] = oral, antibiotic 15 mg/mouse with rutin 10 mg/mouse
[18] = subcutaneous, antibiotic 10 mg/mouse with rutin 5 mg/mouse
[19] = subcutaneous, antibiotic 10 mg/mouse with rutin 10 mg/mouse
[20] = subcutaneous, antibiotic 15 mg/mouse with rutin 5 mg/mouse
[21] = subcutaneous, antibiotic 15 mg/mouse with rutin 10 mg/mouse

SMILES: CO/N=C(\C(=O)N[C@@H]1C(=O)N2C(C(=O)O)=C(COC(C)=O)CS[C@H]12)c1csc(N)n1 [cefotaxime]
- MIC [1]: > 1020 µg/mL
- MIC +flavone [1]: 64 µg/mL

SMILES: O=c1cc(-c2ccc(O)c(O)c2)oc2ccccc12 [3′,4′-dihydroxyflavone]
- MIC ([2]; Staphylococcus aureus): 62.5 to 250 µg/mL (≈ 246 to 983 µM)
- MIC50 [2, 7]: 125 µg/mL (≈ 492 µM)
- MIC90 [2, 8]: 250 µg/mL (≈ 983 µM)
- antibacterial activity on MRSA (in words) [2]: potent antibacterial activity

SMILES: COc1ccc(-c2oc3cc(O)cc(O)c3c(=O)c2O)cc1 [kaempferid]
- MIC50 [2]: 125 µg/mL (≈ 416 µM)
- MIC90 [2]: 125 µg/mL (≈ 416 µM)
- MIC range [2]: 15.6 to 125 µg/mL
- antibacterial activity on MRSA (in words) [2]: potent antibacterial activity

SMILES: COc1cccc(OC)c1C(=O)N[C@@H]1C(=O)N2[C@@H]1SC(C)(C)[C@@H]2C(=O)O [methicillin]
- MIC [1]: 1020 µg/mL
- MIC +flavone [1]: 4 µg/mL
- MIC ([3]; Staphylococcus aureus): 1020 µg/mL
- MIC of methicillin [3]: 1024 µg/mL
- MIC [4]: 0.98 µg/mL

SMILES: CC(Oc1ccccc1)C(=O)N[C@@H]1C(=O)N2[C@@H]1SC(C)(C)[C@@H]2C(=O)O (some centres unmarked) [phenethicillin]
- MIC [1]: 128 µg/mL
- MIC +flavone [1]: 16 µg/mL

SMILES: Oc1cc(O)c2cc(O)c(-c3ccc(O)c(O)c3)[o+]c2c1 [cyanidin]
- MIC50 [2, 7]: 250 µg/mL
- MIC90 [2, 8]: > 500 µg/mL

SMILES: O=C(CCc1ccc(O)cc1)c1c(O)cc(O)cc1O [phloretin]
- MIC ([2]; Staphylococcus aureus): 125 to 250 µg/mL (≈ 456 to 912 µM)
- MIC50 [2, 7]: 250 µg/mL (≈ 912 µM)
- MIC90 [2, 8]: 250 µg/mL (≈ 912 µM)

SMILES: O=c1cc(-c2ccccc2)oc2c(O)c(O)ccc12 [7,8-dihydroxyflavone]
- MIC ([2]; Staphylococcus aureus): 31.3 to 125 µg/mL (≈ 123 to 492 µM)
- MIC50 [2, 7]: 62.5 µg/mL (≈ 246 µM)
- MIC90 [2, 8]: 125 µg/mL (≈ 492 µM)
- antibacterial activity on MRSA (in words) [2]: potent antibacterial activity

SMILES: O=c1cc(-c2ccc(O)cc2)oc2cc(O)ccc12 [7,4′-dihydroxyflavone]
- MIC ([2]; Staphylococcus aureus): 125 to 500 µg/mL (≈ 492 to 1970 µM)
- MIC50 [2, 7]: 250 µg/mL (≈ 983 µM)
- MIC90 [2, 8]: 500 µg/mL (≈ 1970 µM)

SMILES: CC(=O)OCC1=C(C(=O)O)N2C(=O)[C@@H](NC(=O)CSc3ccncc3)[C@H]2SC1 [cefapirin]
- MIC [1]: 128 µg/mL
- MIC +flavone [1]: <0.016 µg/mL
- survival rate [5, 9]: 20%
- survival rate [5, 10]: 20%
- survival rate [5, 11]: 20%
- survival rate [5, 12]: 20%
- survival rate [5, 13]: 40%
- survival rate [5, 14]: 40%
- survival rate [5, 15]: 60%
- survival rate [5, 16]: 60%
- survival rate [5, 17]: 80%
- survival rate [5, 18]: 0%
- survival rate [5, 19]: 20%
- survival rate [5, 20]: 80%
- survival rate [5, 21]: 100%

SMILES: Cc1onc(-c2ccccc2)c1C(=O)N[C@@H]1C(=O)N2[C@@H]1SC(C)(C)[C@@H]2C(=O)O [oxacillin]
- MIC [1]: 512 µg/mL
- MIC +flavone [1]: 1 µg/mL
- survival rate [5, 9]: 20%
- survival rate [5, 10]: 0%
- survival rate [5, 11]: 20%
- survival rate [5, 12]: 20%
- survival rate [5, 13]: 0%
- survival rate [5, 14]: 20%
- survival rate [5, 15]: 20%
- survival rate [5, 16]: 40%
- survival rate [5, 17]: 40%
- survival rate ([5]; oxacillin alone, all doses): ≤ 20%
- survival rate [5, 18]: 40%
- survival rate [5, 19]: 80%
- survival rate [5, 20]: 60%
- survival rate [5, 21]: 60%

SMILES: O=c1cc(-c2ccccc2)oc2ccccc12 [flavone]
- solubility in water (in words) [6]: insoluble in water
- MIC50 [2, 7]: 62.5 µg/mL (≈ 281 µM)
- MIC90 [2, 8]: 125 µg/mL (≈ 562 µM)

SMILES: O=C1c2ccc(O)cc2OC(c2cc(O)c(O)c(O)c2)C1O (stereo in doubt) [dihydrorobinetin]
- MIC50 [2]: 250 µg/mL (≈ 822 µM)
- MIC90 [2]: 250 µg/mL (≈ 822 µM)
- MIC range [2]: 250 µg/mL (≈ 822 µM)

SMILES: O=C1C[C@@H](c2ccc(O)cc2)Oc2cc(O)ccc21 [liquiritigenin]
- MIC50 [2]: 500 µg/mL (≈ 1950 µM)
- MIC90 [2]: 500 µg/mL (≈ 1950 µM)
- MIC range [2]: 250 to 500 µg/mL

SMILES: CC1(C)S[C@@H]2[C@H](NC(=O)C(C(=O)O)c3ccccc3)C(=O)N2[C@H]1C(=O)O (some centres unmarked) [carbenicillin]
- MIC [1]: > 256 µg/mL
- MIC +flavone [1]: 4 µg/mL
